Laboratory results from patent US6723897B2, “Methods for controlling gibberellin levels” (Monsanto Technology, LLC, priority 1998, dated 2004).

Assays:
[1] = tested on: GA-deficient transgenic soybean line 719 (R5); test: Hilum treatment of soybean seeds, seedling growth and development, GA-deficient soybean; assay type: in vivo, Glycine max; set-up: key to Emergence timing / Hypocotyl length (6 DAP) / 1st internode length (12 DAP) / 3rd internode length (20 DAP) / 2nd internode length (12 DAP): pos: emergence faster/stem segment longer than controls; 0: emergence timing/stem segment length similar to controls; neg: emergence slower/stem segment shorter than controls; settings: for Lowest rate where biological activity is observed, 1st internode length (10 DAP) / Lowest rate where biological activity is observed, emergence timing / Lowest rate where biological activity is observed, hypocotyl length (5 DAP) / 1st internode length (12 DAP) / Emergence timing / Hypocotyl length (6 DAP): L719, hilum treatment; for Lowest rate where biological activity is observed, 1st internode length (10 DAP) / Lowest rate where biological activity is observed, emergence timing / Lowest rate where biological activity is observed, hypocotyl length (5 DAP): rate response; for 1st internode length (12 DAP) / Emergence timing / Hypocotyl length (6 DAP): single rate per compound 8.3-16.5 μg/seed; for activity on line 719 in terms of emergence timing and hypocotyl length: single rate, concentration that does not affect normal plant tissue
Procedure: (§1) In the previous experiments, the effect of various GA compounds on transgenic, GA-deficient and wild-type soybean is evaluated by treating seeds with these compounds via imbibition. Several of these compounds are not completely soluble in water, which limited the interpretation of their utility in rescuing GA-deficient dwarf plants. The purpose of this experiment is to reevaluate selected, previously tested compounds, and additional compounds, by introducing them to the seed via the hilum. As shown by the results presented below, direct application of small quantities of GA compounds dissolved in an organic solvent to the hilum is an effective method of treating soybean seeds. As in the previously described experiments, comparison is made between activity on GA-deficient soybean seedlings and normal (wild-type) seedlings. […] soybean seeds are supplied by Asgrow Seed Company (Des Moines, Iowa). Seed of GA-deficient transgenic soybean line 719 is created by transformation of […] soybean with pMON29801 (FMV/antisense CPScc). Fifth generation seed (R5) is used for these experiments. […] When multiple droplets are applied, each 1 μl droplet is allowed to dry before subsequent droplets are added. Ethanol minus compound is used a treatment control. […] (29° C.) and 75° F. (24° C.), respectively. Emergence timing is measured by counting the number of emerged seedlings at different times after planting. Emergence is defined as the presence of cotyledons raised to soil level or above. […] To assess the ability of a seed treatment to deliver biological activity beyond the first internode, measurements are taken on selected treatments after prolonged growth and development.

[2] = tested on: wild-type A3237 soybean; test: Hilum treatment of soybean seeds, seedling growth and development, wild-type soybean; assay type: in vivo, Glycine max; set-up: key to Emergence timing / Hypocotyl length (6 DAP) / 1st internode length (12 DAP) / 3rd internode length (20 DAP): pos: emergence faster/stem segment longer than controls; 0: emergence timing/stem segment length similar to controls; neg: emergence slower/stem segment shorter than controls; settings: for Lowest rate where biological activity is observed, 1st internode length (10 DAP) / Lowest rate where biological activity is observed, emergence timing / Lowest rate where biological activity is observed, hypocotyl length (5 DAP): rate response; for 1st internode length (12 DAP) / Emergence timing / Hypocotyl length (6 DAP): single rate per compound 8.3-16.5 μg/seed
Procedure: as §1

[3] = tested on: constitutively GA-deficient transgenic dwarf soybean line 719; test: Experiment I greenhouse test, seed imbibition, GA-deficient soybean; assay type: in vivo, Glycine max; set-up: Observation on Transgenic Line 719: key: −1: treated plants are shorter as compared to untreated plants; 0: treated plants had the same stature as untreated plants; 1: treated plants are slightly elongated as compared to untreated plants; 2: treated plants are moderately elongated as compared to untreated plants; 3: treated plants are highly elongated as compared to untreated plants; 4: treated plants are extremely elongated as compared to untreated plants; settings: 0.25 mg/ml; for effect in both the constitutive transgenic dwarf and wild-type soybean lines: imbibition, lines 719 and A3237; for Observation on Transgenic Line 719: seeds imbibed 5 hours
Source text: Seeds are covered with 0.5″ of vermiculite.

[4] = tested on: wild-type soybean line A3237; test: Experiment I greenhouse test, seed imbibition, wild-type soybean; settings: 0.25 mg/ml; seeds imbibed 5 hours
Procedure: Compounds are first prepared as 25 mg/ml solutions in ethanol as described above, and then diluted into 40 ml of water to prepare the final 0.25 mg/ml treatment solutions. Visual observations on solubilities (milky, clear, etc.) of the treatment solutions are noted. The treatment solutions are divided into two 20 ml portions, each in 50 ml plastic centrifuge tubes. In addition to treating seeds with solutions containing the test compounds, untreated seeds and seeds imbibed in ethanol-water solution (300 μl ethanol in 30 mls of water) are also included in this experiment as controls. […]
(§2) After imbibition, seeds are removed from the test tubes, placed on wax paper to dry, and planted in bread pans containing farm soil amended with fertilizer at 20 seeds/pan. Seeds are covered with 0.5″ of vermiculite. Pans are transferred to the greenhouse, which had day/night temperatures of 86/68° F. (30/20° C.), and subirrigated. Illumination is at a light intensity of 300-400 μmolm^−2s^−1 photosynthetic photon flux; 16 hours light/8 hours dark. Subsequent waterings are also through sub-irrigation until the test is terminated three weeks later. Observations included the number of dwarf, intermediate, and tall plants; plant height; uniformity of rescue; and any visual effects.

[5] = tested on: constitutively GA-deficient transgenic dwarf soybean line 719; test: Experiment II second greenhouse test, seed imbibition, GA-deficient soybean; assay type: in vivo, Glycine max; settings: seeds imbibed 6 hours
Procedure: (The compounds are tested in Experiment I at only one concentration, i.e., 0.25 mg/ml). Test tubes contained […] of ethanol solution per tube. Final volumes are made up to 30 ml with deionized water. After shaking, the treatment solutions (15 ml each) are transferred to each of two 50 ml test tubes. […] Twenty seeds are used in each treatment. Dry seed, ethanol/water-imbibed seed (1% ethanol in water, v/v), and water-imbibed seeds are included as controls. Seeds are imbibed for 6 hours in the test solutions, then planted in bread pans containing Metromix 350 (The Scotts Company, Marysville, Ohio), and covered with 0.5″ Metro-mix. Covered pans are transferred to the greenhouse and subirrigated. Illumination is at a light intensity of 300-400 μmolm^−2s^−1 photosynthetic photon flux; 16 hours light/8 hours dark. Subsequent waterings are also through sub-irrigation until the test is terminated three weeks later. Observations included the number of dwarf, intermediate, and tall plants; plant height; uniformity of rescue; and any visual effects. Digital photographs are also taken.

[6] = tested on: constitutively GA-deficient transgenic dwarf soybeans (line 719); test: Summary of first two greenhouse experiments, rescue of GA-deficient soybeans; assay type: in vivo, Glycine max; set-up: key: +: transgenic soybeans are rescued; 0: transgenic soybeans are not rescued
Procedure: (§3) Compounds are first prepared as 25 mg/ml solutions in ethanol as described above, and then diluted into 40 ml of water to prepare the final 0.25 mg/ml treatment solutions. Visual observations on solubilities (milky, clear, etc.) of the treatment solutions are noted. The treatment solutions are divided into two 20 ml portions, each in 50 ml plastic centrifuge tubes. In addition to treating seeds with solutions containing the test compounds, untreated seeds and seeds imbibed in ethanol-water solution (300 μl ethanol in 30 mls of water) are also included in this experiment as controls. In the latter case, 20 seeds are imbibed in 30 mls of solution for six hours.
as §2, with “Two soybean varieties are selected for testing: constitutively GA-deficient transgenic dwarf soybean line 719 (plasmid pMON29801, constitutive FMV promoter/asCPScc; which is a mixture of 719−2 and 719+17), and A3237, the wild-type parent material. […] After” for “After”
(§4) All compounds are tested at final concentrations of 0.25, 0.025, and 0.0025 mg/ml except for GA9, which is tested at 0.125, 0.0125, and 0.00125 mg/ml. (The compounds are tested in Experiment I at only one concentration, i.e., 0.25 mg/ml). Test tubes contained […] of ethanol solution per tube. Final volumes are made up to 30 ml with deionized water. After shaking, the treatment solutions (15 ml each) are transferred to each of two 50 ml test tubes. Treatments 1 to 27 are performed on wild-type line A3237; treatments 28 to 54 are performed on constitutively GA-deficient transgenic dwarf soybean line 719 (a mixture of 719−2 and 719+17). Twenty seeds are used in each treatment. Dry seed, ethanol/water-imbibed seed (1% ethanol in water, v/v), and water-imbibed seeds are included as controls. Seeds are imbibed for 6 hours in the test solutions, then planted in bread pans containing Metromix 350 (The Scotts Company, Marysville, Ohio), and covered with 0.5″ Metro-mix. Covered pans are transferred to the greenhouse and subirrigated. Illumination is at a light intensity of 300-400 μmolm^−2s^−1 photosynthetic photon flux; 16 hours light/8 hours dark. Subsequent waterings are also through sub-irrigation until the test is terminated three weeks later. Observations included the number of dwarf, intermediate, and tall plants; plant height; uniformity of rescue; and any visual effects. Digital photographs are also taken.

[7] = tested on: wild-type soybeans (line A3237); test: Summary of first two greenhouse experiments, elongation of wild-type soybeans
Procedure: as §3
as §2, with “Two soybean varieties are selected for testing: constitutively GA-deficient transgenic dwarf soybean line 719 (plasmid pMON29801, constitutive FMV promoter/asCPScc; which is a mixture of 719−2 and 719+17), and A3237, the wild-type parent material. […] After” for “After”
as §4

[8] = 0.0025 mg/ml solution (ethanol-water)
[9] = 0.025 mg/ml solution (ethanol-water)
[10] = 0.25 mg/ml solution (ethanol-water)

Row | SMILES | Lowest rate where biological activity is observed, 1st internode length (10 DAP) [1] | Lowest rate where biological activity is observed, emergence timing [1] | Lowest rate where biological activity is observed, hypocotyl length (5 DAP) [1] | 1st internode length (12 DAP) [1] | Emergence timing [1] | Hypocotyl length (6 DAP) [1] | activity on line 719 in terms of emergence timing and hypocotyl length ([1]; hilum) | Lowest rate where biological activity is observed, 1st internode length (10 DAP) [2] | Lowest rate where biological activity is observed, emergence timing [2] | Lowest rate where biological activity is observed, hypocotyl length (5 DAP) [2] | 1st internode length (12 DAP) [2] | Emergence timing [2] | Hypocotyl length (6 DAP) [2] | effect in both the constitutive transgenic dwarf and wild-type soybean lines [3] | Observation on Transgenic Line 719 [3] | Observation on Wild-Type Line A3237 [4] | Significant Visual Observations on Line 719 ([5]; 0.0025 mg/ml) | Significant Visual Observations on Line 719 ([5]; 0.025 mg/ml) | Rescue of GA-deficient soybeans [6, 10] | Elongation of wild-type soybeans [7, 10] | further results
1 | C=C1C[C@@]23CC[C@@H]4[C@](C)(CO)CCC[C@@]4(C)[C@@H]2CC[C@@H]1C3 [kaurenol] | >100 μg/seed | >100 μg/seed | >100 μg/seed | 0 | pos | pos | biologically active | >100 μg/seed | >100 μg/seed | >100 μg/seed | 0 | 0 | 0 |  |  |  |  |  |  |  | confirmation of activity previously observed ([1]; rate up to 100 ng/seed, hilum): not confirmed
2 | C=C1C[C@]23C[C@@]1(O)CC[C@H]2[C@]1(C)CCC[C@@](C)(C(=O)O)[C@H]1[C@@H]3C(=O)O [GA53] | >10 μg/seed | 1 μg/seed | 1 μg/seed | 0 | pos | pos | biologically active | >10 μg/seed | >10 μg/seed | >10 μg/seed | neg | 0 | 0 |  |  |  |  |  |  |  | 
3 | C=C1C[C@]23C[C@@]1(O)CC[C@H]2[C@@]12CCC[C@@](C)(C(=O)O1)[C@H]2[C@@H]3C(=O)O [GA20] |  |  |  |  |  |  |  |  |  |  |  |  |  | excessive elongation | 4 | 4 | Good rescue of dwarfs | Good rescue of dwarfs | + | + | Significant Visual Observations on Line 719 ([5]; 0.25 mg/ml): Excessive elongation; Rescue of GA-deficient soybeans [6, 8]: +; Rescue of GA-deficient soybeans [6, 9]: +; Elongation of wild-type soybeans [7, 8]: +; Elongation of wild-type soybeans [7, 9]: +
4 | C=C1C[C@]23C[C@H]1CC[C@H]2[C@@]12CC[C@H](O)[C@@](C)(C(=O)O1)[C@H]2[C@@H]3C(=O)O [GA4] |  |  |  |  |  |  |  |  |  |  |  |  |  | slight to medium elongation | 2 | 2 |  |  | + | + | 
5 | C=C1C[C@]23C[C@@]1(O)CC[C@H]2[C@@]12CC[C@H](O)[C@@](C)(C(=O)O1)[C@H]2[C@@H]3C(=O)O [GA1] |  |  |  |  |  |  |  |  |  |  |  |  |  | excessive elongation | 4 | 4 | Good rescue of dwarfs | Good rescue of dwarfs | + | + | Rescue of GA-deficient soybeans [6, 8]: +; Rescue of GA-deficient soybeans [6, 9]: +; Elongation of wild-type soybeans [7, 8]: −; Elongation of wild-type soybeans [7, 9]: +
